Laboratory results as given in patent US11760744B2, “Fused ring compounds” (Genentech, Inc., priority 2018, dated 2023).

How the values were obtained:
[1] = Whole blood stability assay; format: in vitro ADME; details: fresh whole blood, drug 1 μM, 37° C., 180 minutes incubation
Method: Whole Blood Stability Assay A whole blood stability assay was performed using fresh blood with a drug final concentration of 1 μM. The drug-blood mixtures were incubated at 37° C. for 180 minutes.

K-Ras G12C [2] = target: T1, K-Ras G12C (Homo sapiens, UniProt P01116, G12C); experiment: Western blot assay for in cell alkylation of K-Ras G12C (HCC1171 cells); format: cell-based; design: endogenous in cells; host or cells: HCC1171; details: 18 hours at 37° C., 7 point dose response
How it was run: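 HCC1171 cells exposed to compounds for 18 h at 37° C, lysed, and analysed by SDS-PAGE/western blot with anti-K-Ras antibody and fluorescent secondary. Alkylated K-Ras separated by band shift; % alkylation = FI(alkylated)/(FI(alkylated)+FI(unalkylated))×100, IC50 from 7-point dose response.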
Target sequence in this assay (P01116 1-188 isoform P01116-2 G12C): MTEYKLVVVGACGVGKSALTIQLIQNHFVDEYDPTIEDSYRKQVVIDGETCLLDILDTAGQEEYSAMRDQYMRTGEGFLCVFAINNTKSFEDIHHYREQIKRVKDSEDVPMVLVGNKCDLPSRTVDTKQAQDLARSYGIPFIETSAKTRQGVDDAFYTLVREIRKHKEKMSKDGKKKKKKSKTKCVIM

K-Ras G12C [3] = target: T1, K-Ras G12C; experiment: K-Ras G12C, SOS1, Raf RBD HTRF assay for inhibition of GTP exchange; format: biochemical; design: K-Ras G12C (residues 2-188) and SOS1 (residues 564-1049) had N-terminal 6-His; made in house; host or cells: E. coli; details: 18 hours preincubation with K-Ras G12C at room temperature; SOS1-mediated GTP exchange
How it was run: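 After 18 h at room temperature with compound, SOS1 (1.25 nM final) started exchange to GTP (150 μM final). C-Raf RBD, Tb-anti-FLAG and D2-anti-his (50, 1 and 12.5 nM) were then added. The 665/615 nm HTRF ratio was read after 2 h; buffer was HEPES/NaCl, 1 mM MgCl2, BSA, Tween-20 and DTT.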
Target sequence in this assay (P01116 2-188 isoform P01116-2 G12C): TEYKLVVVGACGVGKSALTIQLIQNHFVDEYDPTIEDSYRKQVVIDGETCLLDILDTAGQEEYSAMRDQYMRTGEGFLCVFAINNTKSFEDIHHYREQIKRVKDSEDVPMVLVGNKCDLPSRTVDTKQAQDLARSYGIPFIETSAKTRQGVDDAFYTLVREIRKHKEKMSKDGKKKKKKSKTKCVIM

`C=C(F)C(=O)N1CCN(c2nc(OC[C@@H]3C[C@@H](F)CN3C)nc3c2C[C@@H](C)[C@H](c2c(F)c(N)cc(C)c2C(F)(F)F)C3)C[C@H]1CC#N` (single isomer, unassigned) [Example 38c] showed a half-life at 1 μM [1] of 2.33 h, an EC50 (K-Ras G12C [2]) of 24 nM and an IC50 (K-Ras G12C [3]) of 15 nM.
In the case of `C=CC(=O)N1CCN(c2nc(OC[C@@H]3CCCN3C)nc3c2C[C@@H](C)[C@H](c2nc(N)ccc2C(F)(F)F)C3)[C@@H](C)C1` (single isomer, unassigned) [Example 41b], the half-life at 1 μM [1] is reported as 3.33 h, the EC50 (K-Ras G12C [2]) is reported as 8.1 nM and the IC50 (K-Ras G12C [3]) is reported as less than 10 nM.
